We go through three molecules from patent US12188050B2, “Kidney organoids and methods of manufacturing” (MURDOCH CHILDRENS RESEARCH INSTITUTE, priority 2017, dated 2025).

Common to all, as to type: cell-based, human
Series [1] has as its system kidney micro-organoids at day 7+18. Kind of series: Drug toxicity testing in micro kidney organoids (TUNEL staining, RNA analysis). The following applies: 0, 2.5 and 5 μg/ml for 24 hours. As to the method: FIG. 8. Kidney micro-organoids provides a platform for drug toxicity screening.
To evaluate the suitability of using the suspension culture method described herein to test for drug toxicity of kidneys in vitro, drug toxicity studies were conducted. Organoids produced by the method at day 7+18 were collected and randomized into treatment groups in a 24 well low attachment plates in 250 μl of media. Organoids were stimulated with different concentrations of cytotoxic drug Adriamycin (0, 2.5 and 5 μg/ml) for 24 hours. After stimulation, media was removed and organoids were fixed with 2% PFA for immunofluorescence staining analysis for apoptosis by using TUNEL staining and some organoids were lysed for RNA analysis (FIG. 8A-8D).

The test system of series [2] is intermediate mesoderm (IM) cells differentiated from hPSCs or hES. The series can be described thus: qPCR gene expression profiling of intermediate mesoderm at D7+0, FGF9 +/- 1 μM CHIR99021. The note with it: low concentration CHIR (1 μM) days 5 to 7 with FGF9 and heparin; qPCR at D7+0. From the text: FIG. 1. Generation of kidney micro-organoids in suspension culture. (A) Outline of the kidney micro-organoid differentiation protocol with images from a differentiation performed using CRL1502.C32 cells. (B) Bright field images showing uniform kidney micro-organoids on Day 7+18 (scale […]). (C, D1 and D2) Immunofluorescence and confocal images of micro-organoids showing formation of nephron segments independent of micro-organoid size and shape, including development of vascular structures (scale […]). (E) Bar graphs showing average fold change for intermediate mesoderm gene expression profiling by qPCR on Day 7+0 for FGF9+/−1 μM CHIR99021. The data represented as Mean, (F) Immunofluorescence for PAX2 for FGF9+/−1 μM CHIR99021 treatment (scale 50 μm) (D7+11). (G) Immunofluorescence and confocal images of nephron compartments within kidney micro-organoids; podocytes (NPHS1+ and MAFB+), proximal tubules (LTL+, CUBN+, LRP2+ and HNF4A+), distal tubules (ECAD), collecting duct (ECAD+ GATA3+) and endothelial cells (SOX17+ and PECAM1+) (scale 50 μm).
hPSCs or hES were differentiated into intermediate mesoderm by exposing cells to high concentration of CHIR (7 μM) for the first 4 days in APEL™ 2 or TeSR™-E6 media (Stem cell technologies) media with 3.5% protein free hybridoma media (PFHM) (Thermo Fischer), APEL™ (Stem cell technologies) or E6 media (Stem cell technologies). […]

Series [3] concerns kidney organoids from monolayers of hPSC. Kind of series: Effect of duration of initial 7 μM CHIR99021 on kidney organoid patterning (confocal microscopy). The note with it: then low CHIR and FGF9+heparin to Day 7. As to the method:
FIG. 2. […] (A) Confocal image of micro-kidney organoid tubules on Day 7+18 showing FITC albumin uptake (scale 5 μm). (B) Confocal images of micro-kidney organoids generated using 4 different cell lines, including hES (H9 GAP-Trap Luc2, hES3 SOX17mCherry) and iPS (CRL1502.C32 and CRL1502.3) on Day 7+18 with antibodies labelling different nephron segments (scale 50 μm). (C, D and E) hES3 SOX17mCherry derived micro-organoids generated after exposure to different days of initial 7 μM CHIR99021 for 3, 4, 5 and 6 days treatment showing bright field (C, scale 100 μm) and immunofluorescence confocal images showing SOX17+ vasculature (D) and MEIS1/2/3+ stroma (E) (scale 100 μm).
To optimise differentiation within the kidney organoid protocol, monolayers of hPSC were stimulated using a fixed concentration of CHIR99021 (7 μM) for varying durations (3, 4, 5 and 6 days) before continued culture to Day 7 in the presence of low CHIR and FGF9+heparin (FIGS. 2C, 2D and 2E). After 18 days, resulting kidney organoids were evaluated for kidney structure using confocal microscopy (FIGS. 2C, 2D and 2E). […] 4 days of initial 7 μM CHIR99021 induction was confirmed as optimal and used in further studies.

Series [4] concerns C32 derived swirler kidney organoids. Kind of series: Glomerular podocyte maturation in swirler organoids with atRA (immunofluorescence, qPCR). The source says: FIG. 7. All Trans-Retinoic Acid helps in the improvement of glomerular maturation in kidney micro-organoids. Immunofluorescence analysis of C32 swirler organoids generated by swirler suspension culture. (A) Organoids generated without supplementation at atRA. […] (C) qPCR analysis of organoids generated with and without atRA at different time points (D7+11 and D7+18).
To determine whether addition of all trans retinoic acid (atRA) would facilitate glomerular maturation of the organoids produced by the swirler culture method described in Examples 1-3, atRA was supplemented in the media after D7+0. All trans retinoic acid (2.5 μM) was added from D7+5 to D7+10 on C32 derived swirler organoids (FIG. 5).

Each structure is given as a SMILES string. “Also recorded” adds a separate entry of the source.

For `COc1cccc2c1C(=O)c1c(O)c3c(c(O)c1C2=O)C[C@@](O)(C(=O)CO)C[C@@H]3O[C@H]1C[C@H](N)[C@H](O)[C@H](C)O1` [Adriamycin], in series [1], the “toxicity by expression of TUNEL apoptotic marker” value is “induces dose dependent toxicity”. Moreover, in series [1] (RNA analysis), the “expression of kidney specific genes in micro-organoids” value is given as “reduces the expression of kidney specific genes”.

For the molecule `Cc1c[nH]c(-c2cnc(NCCNc3ccc(C#N)cn3)nc2-c2ccc(Cl)cc2Cl)n1` [CHIR99021], in series [2], the “expression of PAX2, LHX1 and OSR1 (cap mesenchyme) compared to short CHIR exposure groups” value is recorded as “more than 2 folds”. The “increase in expression of Wnt11 and GATA3 (ureteric epithelium) compared to short CHIR exposure groups” value in series [2] is listed as “more than 2 fold”. For the same molecule, the “kidney organoid structure after 18 days” value in series [3] (7 μM CHIR99021 for 4 or 5 days) is “generated kidney organoids containing patterning nephrons”; in series [3] (7 μM CHIR99021 for 3 days), “failed to generate a kidney morphology”; in series [3] (7 μM CHIR99021 for 6 days), “generating larger kidney organoids with greater NPHS1 staining, contained an expanded MEIS1^+ stromal population apparently compromising epithelial structure”.

As for `CC1=C(/C=C/C(C)=C/C=C/C(C)=C/C(=O)O)C(C)(C)CCC1` [atRA, all trans retinoic acid], the “podocyte phenotype by immunofluorescence compared to control group” value in series [4] (2.5 μM atRA from D7+5 to D7+10, analysis after D7+18) is reported as “improved the podocyte phenotype; also recorded: improved glomerular podocyte maturation”. For the same molecule, the “mRNA expression of glomerular and proximal tubular markers (qPCR) compared to control” value in series [4] (2.5 μM atRA, D7+11 and D7+18 samples) is “increased expression of glomerular markers such as NPHS1 and proximal tubular markers like CUBN”.
